Assay results: PubChem BioAssay AID179 (DTP/NCI, 2004)
Active and inactive are the calls of the source.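 The calls were made as follows: active = compounds giving half or more protection of infected cells from virus-caused growth loss, again on retest; inactive = the rest.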

System: CEM cells HIV-1 protection, formazan growth assay
Assay: NCI AIDS Antiviral Assay
Conditions: for IC50: measured here: growth of uninfected CEM cells
In short: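 Protection of CEM cells against HIV-1 was scored from cell growth (soluble formazan) across five concentrations, with parallel uninfected cells. Lack of protection may reflect toxicity.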

SMILES	EC50	IC50	outcome
COC(=O)CC(C(C(C)=O)C(=O)OCc1ccccc1)N1C(=O)OCC1c1ccccc1 (stereo unspecified)	> 100 µM	95.5 µM	
CCOC(=O)CNC(=O)c1[nH]cnc1/N=N/N(C)C		933 µM	inactive
NS(=O)(=O)c1c(O)c2ccccc2oc1=O			inactive
Cc1cccc(/C=N\NC(=S)N2CCCCC2)n1	> 200 µM	0.0631 µM	
OC1C2CCC3C2CC(C(O)(c2ccccc2)c2ccccc2)C13 (stereo unspecified)	> 200 µM	79.4 µM	
COC1C(/C(=N\O)n2cnc3c(Cl)ncnc32)OC2OC(C)(C)OC21 (stereo unspecified)	> 200 µM	> 100 µM	
N#CC(C(=O)/C(=N\NC(N)=O)C(C#N)c1ccccc1)c1ccccc1 (stereo unspecified)	> 724 µM	> 724 µM	
COc1cc2c3c(c1)CCCN3CCC2	> 200 µM	13.2 µM	
CN(C)CCCN1CCC2(CCSCC2)C1	> 186 µM	87.1 µM	
COc1ccc(/C=C/C(=O)C(C)(C)C)cc1			inactive
CCCC/C=C/C/C=C/CCCCCCCCC(=O)OCC1CCCN2CCCCC12 (stereo unspecified)	> 200 µM	7.94 µM	
O=S(=O)(F)c1ccccc1C[P+](c1ccccc1)(c1ccccc1)c1ccccc1	> 200 µM	17.8 µM	
COc1ccccc1NC(=O)/C(Cc1nc2ccc([N+](=O)[O-])cc2[nH]c1=O)=N\NC(=O)C[N+](C)(C)C	> 245 µM	50.1 µM	
O/N=C/c1cc2c(cc1Br)OCO2	> 155 µM	> 155 µM	
CCOC(=O)c1[nH]c2c(OCC)nc(OCC)nc2c1Br	> 200 µM	> 200 µM	
COc1ccc(N2C(=O)CC(c3c[nH]c4ncccc34)C2=O)cc1 (stereo unspecified)	> 200 µM	42.7 µM	
O=C(O)c1ccccc1N=NNc1ccc(/C=C/c2ccc(N=NNc3ccccc3C(=O)O)cc2S(=O)(=O)O)c(S(=O)(=O)O)c1	6.31 µM	389 µM	
CCOC(=O)C(CS)NC(=O)CCCCCCCC(=O)NC(CS)C(=O)OCC (stereo unspecified)	> 200 µM	102 µM	
CCN(CC)C(=O)N[C@@H](CC(C)C)C(=O)NC	> 200 µM	> 200 µM	
C(/C=N/NC1=NCCCN1)=N\NC1=NCCCN1	162 µM	> 200 µM	
CC(C)(C)C1=CC(=N/N=c2\scc(-c3ccccc3)n2Cc2ccccc2)C=C(C(C)(C)C)C1=O	> 5.62 µM	> 5.62 µM	

SMILES	EC50	IC50	outcome
O=C(CSc1nnc(-c2ccc(N=Cc3ccc(Cl)cc3)cc2)o1)Nc1ccccc1	> 112 µM	42.7 µM	
NC(=O)c1cc(-c2ccc(-n3ccnc3)cc2)n[nH]c1=O	> 200 µM	155 µM	
COc1cc(Oc2nc3cc(F)c(F)cc3nc2-c2ccccc2)cc(OC)c1OC	> 100 µM	35.5 µM	
N#Cc1cc([N+](=O)[O-])ccc1NC(=O)/C(=N/N)C(C(=O)c1ccc(Cl)c(Cl)c1)C1OC(=O)c2ccccc21 (stereo unspecified)	> 64.6 µM	> 64.6 µM	
c1ccc(C2N=C(c3ccccn3)C(c3ccccn3)=NC2c2ccccc2)cc1 (stereo unspecified)	> 9.77 µM	> 9.77 µM	
Cc1ccc(C(=O)/C=C/c2ccco2)cc1	> 170 µM	53.7 µM	
O=C(O)Cc1ccc(-c2cn3c(n2)sc2ccccc23)cc1	> 200 µM	> 200 µM	
O=[N+]([O-])c1ccc2c(Nc3ccccc3-c3ccccc3Nc3c4ccccc4nc4cc([N+](=O)[O-])ccc34)c3ccccc3nc2c1	> 2.29 µM	> 2.29 µM	
COc1ccc2cc1Oc1ccc(cc1)C[C@@H]1c3cc(c(OC)cc3CCN1C)Oc1c(O)c(OC)cc3c1CCN(C)C3C2 (stereo partly specified)			inactive
Cc1c(C(=O)NCCO)[n+](=O)c2ccccc2n1[O-]	> 135 µM	> 135 µM	
COC(=O)c1cc(=O)n2c(sc3ccccc32)c1C(=O)c1ccccc1	> 10 µM	> 10 µM	
O=C1C(O)=C(O)C(=O)C(O)=C1O	> 200 µM	> 200 µM	
Cn1cc(NC(=O)c2cc(NC(=O)c3cc(NC(=O)/C=C/C(=O)Nc4cn(C)c(C(=O)Nc5cn(C)c(C(=O)Nc6cn(C)c(C(=O)NCCC(=N)N)n6)n5)n4)cn3C)cn2C)cc1C(=O)NCCC(=N)N	> 7.76 µM	1.45 µM	
CC/C(Cl)=N\OC(=O)Nc1ccc(OC)cc1	> 20 µM	6.76 µM	
Cc1cc2c(cc1-c1cc3c(cc1C)C(C(C)C)=C(O)C(=O)/C3=C\Nc1ccccn1)/C(=C/Nc1ccccn1)C(=O)C(O)=C2C(C)C	> 100 µM	45.7 µM	
NC12CCC(N)(c3ccccc31)c1ccccc12	> 200 µM	> 200 µM	
CC/C(CC(=O)CCC(=O)Nc1c(C)cccc1C)=N\NC(=O)NN	> 145 µM	> 145 µM	
Oc1c(OCc2nnc(CCCCCCCCc3nnc(COc4ccc5ccccc5c4O)o3)o2)ccc2ccccc12	> 200 µM	> 200 µM	
CCOC(COc1c2occc2cc2ccc(=O)oc12)OCC	> 141 µM	51.3 µM	
Cc1cn([C@H]2CC3C(CON3C)O2)c(=O)[nH]c1=O (stereo partly specified)	> 200 µM	> 200 µM	
C[C@H](NC(=O)n1c2ccccc2c2ccccc21)C(=O)O	> 891 µM	234 µM	
